Columns and labels:
[1] = biological target: T1, Serine/threonine-protein kinase D1 (Homo sapiens) (UniProt Q15139); test: Inhibition of human PKCmu assessed as residual activity at 1 uM relative to control
T1 sequence (whole entry): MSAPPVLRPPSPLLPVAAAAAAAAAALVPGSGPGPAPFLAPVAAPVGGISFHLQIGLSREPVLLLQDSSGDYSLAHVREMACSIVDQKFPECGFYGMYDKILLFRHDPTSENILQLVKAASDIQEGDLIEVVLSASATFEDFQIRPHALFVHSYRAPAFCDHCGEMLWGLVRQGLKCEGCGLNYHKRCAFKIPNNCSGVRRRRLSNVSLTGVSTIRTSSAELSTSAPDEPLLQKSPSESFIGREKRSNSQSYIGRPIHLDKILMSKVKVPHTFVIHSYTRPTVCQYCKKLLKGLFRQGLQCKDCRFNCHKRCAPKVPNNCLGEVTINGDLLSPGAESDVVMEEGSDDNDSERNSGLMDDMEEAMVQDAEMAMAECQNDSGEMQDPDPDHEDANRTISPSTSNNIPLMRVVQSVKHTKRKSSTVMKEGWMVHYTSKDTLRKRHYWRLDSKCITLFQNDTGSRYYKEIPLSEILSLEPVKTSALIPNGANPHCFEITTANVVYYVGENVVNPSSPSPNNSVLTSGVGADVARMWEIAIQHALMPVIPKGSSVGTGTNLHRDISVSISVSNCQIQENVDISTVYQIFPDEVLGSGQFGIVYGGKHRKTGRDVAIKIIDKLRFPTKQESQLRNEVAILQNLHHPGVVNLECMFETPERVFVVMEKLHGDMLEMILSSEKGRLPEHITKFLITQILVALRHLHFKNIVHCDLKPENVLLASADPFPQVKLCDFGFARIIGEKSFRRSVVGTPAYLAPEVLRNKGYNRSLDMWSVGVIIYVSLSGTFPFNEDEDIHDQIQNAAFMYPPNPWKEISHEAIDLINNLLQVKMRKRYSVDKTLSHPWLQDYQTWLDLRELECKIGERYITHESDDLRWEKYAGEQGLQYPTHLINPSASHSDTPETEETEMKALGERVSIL

[2] = biological target: Myosin light chain kinase, smooth muscle (Homo sapiens) (UniProt Q15746); test: Inhibition of human MYLK assessed as residual activity at 1 uM relative to control
[3] = biological target: T2, Serine/threonine-protein kinase 3 (Homo sapiens) (UniProt Q13188); test: Inhibition of human MST2 assessed as residual activity at 1 uM relative to control
T2 sequence (whole entry): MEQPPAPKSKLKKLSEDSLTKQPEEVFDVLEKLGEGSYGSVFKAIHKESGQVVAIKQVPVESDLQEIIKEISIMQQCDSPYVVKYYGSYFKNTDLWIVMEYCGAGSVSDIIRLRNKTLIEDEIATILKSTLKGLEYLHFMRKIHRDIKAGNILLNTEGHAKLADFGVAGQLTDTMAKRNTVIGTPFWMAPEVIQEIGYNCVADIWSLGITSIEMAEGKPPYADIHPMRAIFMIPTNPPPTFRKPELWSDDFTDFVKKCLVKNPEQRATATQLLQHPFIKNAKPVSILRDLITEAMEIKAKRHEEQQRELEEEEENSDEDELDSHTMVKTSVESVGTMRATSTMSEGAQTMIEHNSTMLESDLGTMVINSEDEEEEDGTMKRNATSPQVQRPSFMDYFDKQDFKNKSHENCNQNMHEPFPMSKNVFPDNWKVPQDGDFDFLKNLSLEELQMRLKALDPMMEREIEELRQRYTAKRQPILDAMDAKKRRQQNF

[4] = biological target: 5'-AMP-activated protein kinase catalytic subunit alpha-1 (Homo sapiens) (UniProt Q13131); test: Inhibition of human AMPKalpha1 (1 to 550 residues assessed as residual activity at 1 uM relative to control
[5] = biological target: T3, Serine/threonine-protein kinase TBK1 (Homo sapiens) (UniProt Q9UHD2); test: Inhibition of human TBK1 assessed as residual activity at 1 uM relative to control
T3 sequence (whole entry): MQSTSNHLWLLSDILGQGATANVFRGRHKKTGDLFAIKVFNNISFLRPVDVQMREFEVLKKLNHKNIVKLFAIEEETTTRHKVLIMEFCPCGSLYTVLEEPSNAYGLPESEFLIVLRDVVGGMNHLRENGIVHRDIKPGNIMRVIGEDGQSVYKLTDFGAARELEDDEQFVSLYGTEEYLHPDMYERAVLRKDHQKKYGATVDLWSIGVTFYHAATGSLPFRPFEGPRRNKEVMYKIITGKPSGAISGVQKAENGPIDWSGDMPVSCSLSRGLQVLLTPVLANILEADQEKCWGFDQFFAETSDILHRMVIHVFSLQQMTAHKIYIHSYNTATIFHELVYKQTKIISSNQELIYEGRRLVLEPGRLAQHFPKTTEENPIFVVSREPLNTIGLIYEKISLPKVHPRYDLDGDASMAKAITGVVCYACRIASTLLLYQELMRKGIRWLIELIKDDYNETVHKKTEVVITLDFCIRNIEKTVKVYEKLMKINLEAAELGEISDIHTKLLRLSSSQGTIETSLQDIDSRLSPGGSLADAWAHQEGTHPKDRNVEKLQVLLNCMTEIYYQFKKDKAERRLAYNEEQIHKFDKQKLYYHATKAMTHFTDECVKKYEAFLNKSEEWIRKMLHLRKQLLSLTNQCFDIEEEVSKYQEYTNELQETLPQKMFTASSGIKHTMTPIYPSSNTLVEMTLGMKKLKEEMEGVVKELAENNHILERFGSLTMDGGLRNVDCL

[6] = biological target: T4, Interleukin-1 receptor-associated kinase 4 (Homo sapiens) (UniProt Q9NWZ3); test: Inhibition of human untagged IRAK4 assessed as residual activity at 0.1 uM relative to control
T4 sequence (whole entry): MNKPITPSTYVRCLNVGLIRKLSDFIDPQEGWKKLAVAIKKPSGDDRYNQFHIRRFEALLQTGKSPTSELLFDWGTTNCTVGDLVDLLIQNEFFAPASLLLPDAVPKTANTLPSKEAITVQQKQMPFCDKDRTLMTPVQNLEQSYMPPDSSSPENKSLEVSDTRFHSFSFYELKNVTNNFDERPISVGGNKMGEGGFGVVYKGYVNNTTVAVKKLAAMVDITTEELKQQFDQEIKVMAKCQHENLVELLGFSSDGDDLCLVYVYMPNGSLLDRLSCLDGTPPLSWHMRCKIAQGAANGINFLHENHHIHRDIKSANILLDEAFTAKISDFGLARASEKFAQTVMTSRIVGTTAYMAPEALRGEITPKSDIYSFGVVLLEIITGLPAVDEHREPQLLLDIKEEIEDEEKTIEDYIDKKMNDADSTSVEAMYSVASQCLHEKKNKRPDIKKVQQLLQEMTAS

[7] = biological target: RAC-alpha serine/threonine-protein kinase (Homo sapiens) (UniProt P31749); test: Inhibition of human AKT1 (104 to 408 residues) assessed as residual activity at 1 uM relative to control
[8] = biological target: Receptor-interacting serine/threonine-protein kinase 2 (Homo sapiens) (UniProt O43353); test: Inhibition of human RIPK2 assessed as residual activity at 1 uM relative to control
Chain of Receptor-interacting serine/threonine-protein kinase 2 (Homo sapiens) (O43353 whole entry): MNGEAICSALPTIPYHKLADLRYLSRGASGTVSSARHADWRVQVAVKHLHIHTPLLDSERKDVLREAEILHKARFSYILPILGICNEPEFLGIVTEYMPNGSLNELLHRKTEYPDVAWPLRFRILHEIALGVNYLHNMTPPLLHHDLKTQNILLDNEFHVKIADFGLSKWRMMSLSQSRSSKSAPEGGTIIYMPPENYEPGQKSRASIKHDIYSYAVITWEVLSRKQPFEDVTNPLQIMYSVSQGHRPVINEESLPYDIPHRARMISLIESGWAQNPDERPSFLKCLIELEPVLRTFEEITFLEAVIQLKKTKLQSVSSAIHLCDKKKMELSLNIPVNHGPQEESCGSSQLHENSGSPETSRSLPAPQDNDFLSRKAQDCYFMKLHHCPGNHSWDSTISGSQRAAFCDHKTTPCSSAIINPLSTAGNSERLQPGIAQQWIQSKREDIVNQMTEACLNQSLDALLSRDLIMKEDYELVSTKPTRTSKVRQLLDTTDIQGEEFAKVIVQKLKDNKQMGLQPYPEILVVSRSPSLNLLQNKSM

Chain of 5'-AMP-activated protein kinase catalytic subunit alpha-1 (Homo sapiens) (Q13131 whole entry, looked up, the tested form may be a part): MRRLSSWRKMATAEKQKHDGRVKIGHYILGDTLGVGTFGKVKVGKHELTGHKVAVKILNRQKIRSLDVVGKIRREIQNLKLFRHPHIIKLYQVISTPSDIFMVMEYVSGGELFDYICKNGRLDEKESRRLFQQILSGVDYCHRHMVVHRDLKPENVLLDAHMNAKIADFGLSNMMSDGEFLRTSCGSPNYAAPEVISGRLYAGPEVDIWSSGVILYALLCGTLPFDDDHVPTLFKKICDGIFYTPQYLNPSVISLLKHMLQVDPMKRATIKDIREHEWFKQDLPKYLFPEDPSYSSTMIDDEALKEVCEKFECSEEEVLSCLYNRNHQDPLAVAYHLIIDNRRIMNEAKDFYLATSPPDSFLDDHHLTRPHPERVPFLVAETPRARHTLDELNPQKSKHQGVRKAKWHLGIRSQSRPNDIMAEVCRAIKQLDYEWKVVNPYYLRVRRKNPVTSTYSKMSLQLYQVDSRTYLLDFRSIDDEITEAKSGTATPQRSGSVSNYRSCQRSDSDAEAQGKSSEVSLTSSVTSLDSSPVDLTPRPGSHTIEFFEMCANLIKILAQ
Chain of RAC-alpha serine/threonine-protein kinase (Homo sapiens) (P31749 whole entry, the tested form may be a part): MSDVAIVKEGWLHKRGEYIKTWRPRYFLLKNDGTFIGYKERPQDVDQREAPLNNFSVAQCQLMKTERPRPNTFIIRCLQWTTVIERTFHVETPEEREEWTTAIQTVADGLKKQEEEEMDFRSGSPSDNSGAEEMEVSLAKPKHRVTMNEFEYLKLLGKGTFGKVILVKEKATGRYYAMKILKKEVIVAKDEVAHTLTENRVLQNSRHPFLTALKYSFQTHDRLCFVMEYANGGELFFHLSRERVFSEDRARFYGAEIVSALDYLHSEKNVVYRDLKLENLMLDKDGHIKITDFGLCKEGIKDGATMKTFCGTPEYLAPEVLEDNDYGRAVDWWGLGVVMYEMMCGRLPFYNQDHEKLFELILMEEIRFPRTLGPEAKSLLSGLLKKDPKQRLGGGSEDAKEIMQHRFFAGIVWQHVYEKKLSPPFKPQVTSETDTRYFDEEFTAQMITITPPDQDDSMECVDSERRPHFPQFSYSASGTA
Chain of Myosin light chain kinase, smooth muscle (Homo sapiens) (Q15746 whole entry): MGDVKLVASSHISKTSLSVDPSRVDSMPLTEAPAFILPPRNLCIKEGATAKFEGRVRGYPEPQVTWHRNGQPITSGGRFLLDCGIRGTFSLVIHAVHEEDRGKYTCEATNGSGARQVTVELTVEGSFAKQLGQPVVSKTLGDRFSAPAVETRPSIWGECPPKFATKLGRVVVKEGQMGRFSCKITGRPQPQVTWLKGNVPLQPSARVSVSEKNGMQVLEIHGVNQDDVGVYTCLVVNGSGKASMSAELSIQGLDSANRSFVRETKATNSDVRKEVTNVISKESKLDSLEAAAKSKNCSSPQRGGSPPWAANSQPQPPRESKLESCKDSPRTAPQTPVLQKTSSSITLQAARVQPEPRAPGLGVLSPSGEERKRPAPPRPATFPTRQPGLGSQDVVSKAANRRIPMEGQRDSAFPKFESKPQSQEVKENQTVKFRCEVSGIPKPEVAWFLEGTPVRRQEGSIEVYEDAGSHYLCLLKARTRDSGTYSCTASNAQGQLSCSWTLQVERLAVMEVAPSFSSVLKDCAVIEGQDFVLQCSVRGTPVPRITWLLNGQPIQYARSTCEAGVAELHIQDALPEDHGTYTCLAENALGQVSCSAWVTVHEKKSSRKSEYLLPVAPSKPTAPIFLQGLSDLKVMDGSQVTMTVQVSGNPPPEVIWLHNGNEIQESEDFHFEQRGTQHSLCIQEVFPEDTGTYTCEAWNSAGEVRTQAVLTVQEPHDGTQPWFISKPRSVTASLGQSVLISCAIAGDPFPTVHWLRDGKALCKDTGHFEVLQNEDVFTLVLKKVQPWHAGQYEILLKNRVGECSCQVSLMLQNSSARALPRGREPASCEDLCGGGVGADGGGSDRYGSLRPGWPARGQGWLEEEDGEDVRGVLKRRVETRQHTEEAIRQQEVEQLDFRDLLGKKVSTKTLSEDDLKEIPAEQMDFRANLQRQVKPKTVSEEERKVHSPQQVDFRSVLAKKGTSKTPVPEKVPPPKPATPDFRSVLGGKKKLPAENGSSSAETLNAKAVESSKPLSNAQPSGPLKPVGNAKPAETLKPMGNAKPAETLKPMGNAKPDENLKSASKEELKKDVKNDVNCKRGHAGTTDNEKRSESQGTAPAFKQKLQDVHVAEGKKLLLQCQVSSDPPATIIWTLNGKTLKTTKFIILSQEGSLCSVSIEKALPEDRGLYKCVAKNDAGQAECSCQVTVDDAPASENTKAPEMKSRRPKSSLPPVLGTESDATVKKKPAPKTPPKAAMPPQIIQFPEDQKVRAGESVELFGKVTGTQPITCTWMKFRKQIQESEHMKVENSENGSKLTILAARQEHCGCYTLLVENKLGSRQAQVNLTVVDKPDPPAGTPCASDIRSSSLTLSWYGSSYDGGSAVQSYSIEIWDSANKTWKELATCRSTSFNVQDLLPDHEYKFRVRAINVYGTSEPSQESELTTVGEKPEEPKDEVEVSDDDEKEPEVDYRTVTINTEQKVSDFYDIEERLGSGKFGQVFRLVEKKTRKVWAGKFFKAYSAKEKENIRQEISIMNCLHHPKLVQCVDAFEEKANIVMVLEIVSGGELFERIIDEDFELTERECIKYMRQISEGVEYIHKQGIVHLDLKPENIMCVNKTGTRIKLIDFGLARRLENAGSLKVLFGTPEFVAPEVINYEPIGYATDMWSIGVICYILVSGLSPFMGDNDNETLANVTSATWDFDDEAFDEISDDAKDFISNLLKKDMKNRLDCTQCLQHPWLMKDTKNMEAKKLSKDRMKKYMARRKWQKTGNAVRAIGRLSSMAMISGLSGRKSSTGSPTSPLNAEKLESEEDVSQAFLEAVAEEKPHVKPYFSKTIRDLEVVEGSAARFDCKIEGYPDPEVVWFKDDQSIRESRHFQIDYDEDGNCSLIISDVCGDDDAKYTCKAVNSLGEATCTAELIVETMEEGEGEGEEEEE

Question: For `COc1ccc2[nH]cc(/C=C3\C(=O)Nc4ccc(S(N)(=O)=O)cc43)c2c1`, which Activity [1] is on record?
Answer: 72%

Question: And the Activity [2]?
Answer: 83%

Question: And the Activity [3]?
Answer: 64%

Question: And the Activity [4]?
Answer: 72%

Question: And the Activity [5]?
Answer: 62%

Question: And the Activity [6]?
Answer: 45%

Question: And the Activity [7]?
Answer: 101%

Question: And the Activity [8]?
Answer: 48%

Question: Which results are given for `COc1ccc2c(c1)c(/C=C1\C(=O)Nc3ccc(S(=O)(=O)N(C)C)cc31)cn2C`?
Answer: Activity [1]: 92%; Activity [2]: 91%; Activity [3]: 104%; Activity [4]: 91%; Activity [5]: 79%; Activity [6]: 91%; Activity [7]: 93%; Activity [8]: 95%

Question: Which results are given for `COc1ccc2c(c1)c(/C=C1\C(=O)Nc3ccc(S(N)(=O)=O)cc31)cn2C`?
Answer: Activity [1]: 91%; Activity [2]: 90%; Activity [3]: 84%; Activity [4]: 89%; Activity [5]: 55%; Activity [6]: 12%; Activity [7]: 96%; Activity [8]: 97%

Question: With `Cn1cc(/C=C2\C(=O)Nc3ccc(S(N)(=O)=O)cc32)c2ccccc21` as the molecule, how does the Activity [1] read?
Answer: 91%

Question: What about the Activity [2] of the same molecule?
Answer: 90%

Question: And the Activity [3]?
Answer: 62%

Question: And the Activity [4]?
Answer: 56%

Question: And the Activity [5]?
Answer: 58%

Question: What about the Activity [6] of the same molecule?
Answer: 6%

Question: What about the Activity [7] of the same molecule?
Answer: 97%

Question: And the Activity [8]?
Answer: 84%

Question: What does the source list for `CNS(=O)(=O)c1ccc2c(c1)/C(=C/c1cn(C)c3ccc(OC)cc13)C(=O)N2`?
Answer: Activity [1]: 93%; Activity [2]: 90%; Activity [3]: 77%; Activity [4]: 88%; Activity [5]: 93%; Activity [6]: 59%; Activity [7]: 98%; Activity [8]: 100%

Question: Which results are given for `CN(C)S(=O)(=O)c1ccc2c(c1)/C(=C/c1cn(C)c3ccc(O)cc13)C(=O)N2`?
Answer: Activity [1]: 89%; Activity [2]: 84%; Activity [3]: 83%; Activity [4]: 87%; Activity [5]: 81%; Activity [6]: 68%; Activity [7]: 105%; Activity [8]: 89%

— ChEMBL document CHEMBL4765228, “Indole-like Trk receptor antagonists” (Eur J Med Chem, 2016)
